In patent publication US20110257139A1, “TREATMENT OF DIARRHOEA” (ROYAL COLLEGE OF SURGEONS IN IRELAND, priority 2008, published 2011):

Columns and labels:
[1] = system: T84 cells; assay: Cellular ATP levels in T84 cells (ENLITEN ATP Assay); assay type: cell-based; details: 5 μM, 24 hrs
Protocol: Cells were then lysed with hypotonic lysis buffer (2 mM EDTA, 100 mM Trizma base, brought to pH 7.75 with acetic acid) and frozen at −80° C. The lysate was later assayed for ATP content using the ENLITEN® ATP Assay System (Promega, Madison, Wis.).

[2] = system: K^+ channel conductances; assay: Basolateral K^+ conductance in T84 monolayers (Ussing chambers); assay type: cell-based; details: 5 μM, 24 hrs
Protocol: To measure basolateral K^+ conductance T84 cell monolayers in Ussing chambers were apically permeabilized with amphotericin B (50 μmol/L). A K^+ gradient (123.2-5.2 mmol/L) was created across the basolateral membrane by addition of a high K^+ (123.2 mmol/L) Ringers solution, in which NaCl is substituted with K^+-gluconate, to the apical reservoir. Ouabain (100 μmol/L) was added basolaterally to inhibit Na^+/K^+-ATPase pump activity. Under these conditions changes in Isc are wholly reflective of changes in basolateral K^+ conductance (IK^+).

[3] = system: mouse colon; assay: Ex vivo Isc measurements in muscle-stripped colon after intraperitoneal dosing of mice; details: 100 mg/kg intraperitoneally, 24 hrs
Protocol: Animal Studies: Male C57BL6 mice were bred and maintained in an environmentally controlled animal facility at Beaumont Hospital. Experiments were performed on 6-9 week old animals and were in compliance with Irish Department of Health and Children regulations and approved by the Beaumont Hospital Ethics Committee. […] The distal colon was removed, stripped of underlying smooth muscle, and mounted in Ussing chambers (window area=0.3 cm^2). Results were normalized and expressed as ΔIsc (μA/cm^2).
Administration of a potent and selective FXR agonist inhibits Cl^− secretory responses in mouse colon. FIG. 10.

[4] = system: T84 cells; assay: Transepithelial conductance of T84 monolayers as a measure of cell viability; assay type: cell-based; details: various concentrations for 24 hrs
Protocol: Monolayers were then mounted in Ussing chambers and transepithelial conductance measurements were made as a measure of cell viability (n=4-13). Only at concentrations>10 μM did GW 4064 exert toxic effects on T84 cells. FIG. 5.

[5] = system: Na^+/K^+ ATPase pump; assay: Abundance (western blotting) and surface expression (biotinylation) of Na^+/K^+ ATPase pump in T84 cells; assay type: cell-based; details: 5 μM, 24 hrs
Protocol: Western Blotting: T84 monolayers were washed with ice-cold PBS and lysed (1% Nonidet P-40, 150 mmol/L NaCl, 50 mmol/L Tris Base, 1×Complete mini EDTA free protease inhibitor tablet, 0.1 mg/l mL PMSF, 1 mmol/L Na3VO4). Lysates were collected, centrifuged at 15,294×g for 10 minutes at 4° C., the pellet discarded, and the supernatant sonicated with 3×10 second pulses in order to disrupt membrane proteins. Samples were normalized for protein content and 2× gel loading buffer (50 mM Tris HCl, 100 mM DTT, 40% glycerol and 4% SDS) was added. Samples were then heated at 95° C. for 5 min, separated by sodium dodecyl sulphate polyacrylamide gel electrophoresis and transferred to PVDF membranes. Membranes were pre-blocked in 5% blocking buffer (Marvel in PBS) for 60 minutes at room temperature followed by incubation with primary antibody in 5% blocking buffer overnight at 4° C. […] After further washing (×4) in TBST, immunoreactive proteins were detected by enhanced chemiluminescence (Amersham Biosciences, UK).
Cell Surface Biotinylation: Following treatment T84 cell monolayers were washed ×3 in ice-cold PBS and freshly prepared biotinylation buffer (1 mg/mL sulfo-NHS-biotin (Pierce) in PBS) was added basolaterally. […] Na^+/K^+-ATPase □ subunit was detected by western blot analysis as described above.

[6] = system: T84 cells; assay: Cl^− secretory (Isc) responses of T84 cell monolayers in Ussing chambers; assay type: cell-based; details: for Isc (Cl^− secretory) response to carbachol (CCh) / Isc (Cl^− secretory) response to forskolin: T84 monolayers pretreated with 1 μM for 24 hrs; for Isc (Cl^− secretory) response to carbachol (CCh): carbachol 100 μM; for Isc (Cl^− secretory) response to forskolin: forskolin 10 μM
Protocol: Measurements of chloride secretion: Cultured T84 epithelial cells were employed as a model of the colonic epithelium. T84 cells were grown as monolayers on filter supports. When grown in this way T84 cells retain many of the characteristics of native intestinal epithelium and are widely considered as being among the best reductionist models for analysing intestinal epithelial secretory responses. […] After this time they were washed of GW 4064, mounted in Ussing chambers, and voltage-clamped to zero potential difference. Under these conditions, transepithelial ion transport can be measured as changes in short-circuit current (Isc) and such changes in Isc across T84 cells have been established as being wholly due to Cl^− ion secretion. After mounting the cells in Ussing chambers we measured Cl^− secretory responses to both the calcium- and cAMP-dependent agonists, carbachol (100 μM) and forskolin (10 μM), respectively.

For GW4064, the “Cellular ATP levels” value [1] was “does not alter”, the “K^+ channel conductances” value [2] was “did not significantly alter” and the “Ex vivo Isc response of colon to CCh” value [3] was “significantly attenuated”. For the same substance, the “Ex vivo Isc response of colon to forskolin” value [3] was “significantly attenuated”, the “Concentration exerting toxic effects on T84 cells (transepithelial conductance)” value [4] was greater than 10 µM and the “Cellular abundance of the catalytic α subunit of Na^+/K^+ ATPase (western blotting)” value [5] was “does not alter”. For the same substance, the “Surface expression of Na^+/K^+ ATPase pump (biotinylation)” value [5] was “does not alter”, the “CCh-induced Cl^− secretory responses” value ([6]; GW4064 5 μM, 24 hrs) was “inhibited” and the “Isc (Cl^− secretory) response to carbachol (CCh)” value [6] was “significantly attenuates”. For the same substance, the “Isc (Cl^− secretory) response to carbachol (CCh)” value ([6]; listed as GW 4064) was “significantly reduce”, the “Isc (Cl^− secretory) response to forskolin” value [6] was “significantly attenuates” and the “Isc (Cl^− secretory) response to forskolin” value ([6]; listed as GW 4064) was “significantly reduce”. The “Time-dependence of attenuation of Cl^− secretory responses to CCh” value ([6]; pretreated 5 μM for various periods of time, CCh 100 μM) was “attenuates Cl^− secretion in a time-dependent fashion” and the “Concentration-dependence of antisecretory actions (Cl^− secretory responses to CCh and forskolin)” value ([6]; pretreated 0.1-10 μM for 24 hrs) was “concentration-dependent”.
